Assay results published in patent US20230000773A1, “NOVEL HEADGROUP LIPID COMPOUNDS AND COMPOSITIONS FOR INTRACELLULAR DELIVERY OF THERAPEUTIC AGENTS” (ModernaTX, Inc., priority 2019, published 2023).

Assays:
[1] = test system: hEPO mRNA; experiment: hEPO expression in CD1-mice after intravenous administration of nanoparticles; assay type: in vivo; details: 6 h after intravenous administration, mRNA dose 0.5 mg/kg, N:P 3.4, compound:DSPC:cholesterol:PEG 2 50:10:38:2
Experimental: The expression of hEPO mRNA in CD1-mice was measured 6 h after intravenous administration of nanoparticles comprising a compound of the disclosure, DSPC, cholesterol, and PEG 2 in a ratio of 50:10:38:2. […] Each composition was dosed to 8 animals at an mRNA dose of 0.5 mg/kg.

[2] = Size and polydispersity index of nanoparticles comprising compounds of the disclosure; assay type: physicochemical; details: compound:DSPC:cholesterol:PEG 2 50:10:38:2 mol %
Text: Lipid nanoparticles (e.g., empty LNPs or loaded LNPs) may be characterized by a variety of methods. For example, microscopy (e.g., transmission electron microscopy or scanning electron microscopy) may be used to examine the morphology and size distribution of a nanoparticle composition. Dynamic light scattering or potentiometry (e.g., potentiometric titrations) may be used to measure zeta potentials. Dynamic light scattering may also be utilized to determine particle sizes. Instruments such as the Zetasizer Nano ZS (Malvern Instruments Ltd, Malvern, Worcestershire, UK) may also be used to measure multiple characteristics of a nanoparticle composition, such as particle size, polydispersity index, and zeta potential.
(§1) Nanoparticle compositions including a therapeutic and/or prophylactic can be optimized according to the selection of a compound according to Formula (I), (I-1), (A), (A-1), (A-1a), or (A-1b), the selection of additional lipids, the amount of each lipid in the lipid component, and the wt:wt ratio of the lipid component to the therapeutic and/or prophylactic. Nanoparticle compositions including DSPC as a phospholipid, cholesterol as a structural lipid, PEG 2 as a PEG lipid, and a compound according to Formula (I), (I-1), (A), (A-1), (A-1a), or (A-1b) were prepared. The ratios of the lipids were 50:10:38:2 mol % for the lipid according to Formula (I), (I-1), (A), (A-1), (A-1a), or (A-1b):DSPC:cholesterol:PEG 2. […]

[3] = test system: mRNA; experiment: mRNA integrity in nanoparticles by RP-IP HPLC (UV 260 nm); assay type: physicochemical
Experimental: Integrity of mRNA comprised in nanoparticles of the disclosure, i.e., the percentages of intact mRNA, mRNA adducts, and mRNA hydrolysis products, […] (Reverse-Phase Ion-Pairing HPLC) using UV detection at 260 nm. Total purity and impurities are calculated as percent peak area.

[4] = Apparent LNP pKa by 2-(p-toluidino)-6-napthalene sulfonic acid (TNS) assay; assay type: physicochemical; details: pH at half of maximum fluorescence
[5] = Encapsulation efficiency (% EE), ribogreen; assay type: physicochemical; details: nanoparticles, compound:DSPC:cholesterol:PEG 2 50:10:38:2 mol %
Text: (§2) The efficiency of encapsulation of a therapeutic and/or prophylactic describes the amount of therapeutic and/or prophylactic that is encapsulated or otherwise associated with a lipid nanoparticle (e.g., an empty LNP or a loaded LNP) after preparation, relative to the initial amount provided. The encapsulation efficiency is desirably high (e.g., close to 100%). The encapsulation efficiency may be measured, for example, by comparing the amount of therapeutic and/or prophylactic in a solution containing the lipid nanoparticle (e.g., an empty LNP or a loaded LNP) before and after breaking up the lipid nanoparticle (e.g., an empty LNP or a loaded LNP) with one or more organic solvents or detergents. Fluorescence may be used to measure the amount of free therapeutic and/or prophylactic (e.g., RNA) in a solution.
as §1

[6] = test system: serum protein ApoE; experiment: ApoE binding affinity of nanoparticles (bead binding, flow cytometry)
Experimental: The ApoE binding affinity, i.e., the affinity of binding between nanoparticles comprising compounds of the disclosure and the serum protein ApoE, was determined by binding the nanoparticles to beads, then incubating them with known quantities of […]. The quantity of protein bound to the nanoparticle was then determined by flow cytometry.

[7] = Heparin-sepharose binding of nanoparticles
[8] = Encapsulation efficiency (% EE), ribostar; assay type: physicochemical; details: nanoparticles, compound:DSPC:cholesterol:PEG 2 50:10:38:2 mol %
Text: as §2, with “solution. For the lipid nanoparticles (e.g., empty LNPs or loaded LNPs) described herein, the encapsulation efficiency of a therapeutic and/or prophylactic may be at least 50%, for example 50%, 55%, 60%, 65%, 70%, 75%, 80%, 85%, 90%, 91%, 92%, 93%, 94%, 95%, 96%, 97%, 98%, 99%, or 100%. In some embodiments, the encapsulation efficiency may be at least 80%. In certain embodiments, the encapsulation efficiency may be at least 90%. In some embodiments, the encapsulation efficiency of the therapeutic and/or prophylactic agent is between 80% and 100%.” for “solution.”
Nanoparticle compositions including a therapeutic and/or prophylactic can be optimized according to the selection of a compound according to Formula (I), (I-1), (A), (A-1), (A-1a), or (A-1b), the selection of additional lipids, the amount of each lipid in the lipid component, and the wt:wt ratio of the lipid component to the therapeutic and/or prophylactic. Nanoparticle compositions including DSPC as a phospholipid, cholesterol as a structural lipid, PEG 2 as a PEG lipid, and a compound according to Formula (I), (I-1), (A), (A-1), (A-1a), or (A-1b) were prepared. The ratios of the lipids were 50:10:38:2 mol % for the lipid according to Formula (I), (I-1), (A), (A-1), (A-1a), or (A-1b):DSPC:cholesterol:PEG 2. Tables 2a, 2b, and 3-5 summarize the characteristics of the formulations.
Table 4 summarizes the surface hydrophobicity of nanoparticles comprising compounds of the disclosure as determined by Generalized Polarization by Laurdan (GPL). Laurdan, a fluorescent aminonaphthalene ketone lipid, was post-inserted into the nanoparticle surface and the fluorescence spectrum of Laurdan was collected to determine the normalized Generalized Polarization (N-GP). Higher N-GP indicates a less polar surface.

[9] = Surface hydrophobicity by Generalized Polarization by Laurdan (GPL); assay type: physicochemical; details: normalized Generalized Polarization by Laurdan; higher N-GP = less polar surface
Outline: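 LNPs contained ionizable lipid:DSPC:cholesterol:PEG lipid at 50:10:38:2 mol %. Laurdan was post-inserted into the particle surface, and its fluorescence spectrum gave normalized generalized polarization (N-GP); higher N-GP means a less polar surface.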

[10] = mRNA integrity after 2 weeks at 25° C., percent peak area
[11] = mRNA integrity at t = 0, percent peak area

PDI [2] | Size (nm) [2] [nm] | Adduct [3, 10] [%] | Hydrolysis Product [3, 10] [%] | Intact [3, 10] [%] | Adduct [3, 11] [%] | Hydrolysis Product [3, 11] [%] | Intact [3, 11] [%] | LogIC50 (pKa) [4] | % EE (ribogreen) [5] [%] | Median Fluorescence Intensity, PE [6] | Relative % Area Bound by LNP [7] [%] | % EE (ribostar) [8] [%] | Average N-GP [9] | SMILES | Avg. [hEPO] mIU/mL [1] [mIU/mL]
0.090 | 76.7 | 24.9 | 23.5 | 51.6 | 5.6 | 16.8 | 77.7 | 6.39 | 91.2 | 78901 | 0 | 78.6 | 0.988 | CCCCCCCCC(CC)OC(=O)CCCCCCCN(CCCCCCCC(=O)OC(CCCCCCCC)CCCCCCCC)CCCNC1=C(C(N)=O)C(=O)OC1 (stereo not shown) [Compound 72, Heptadecan-9-yl 8-((3-((4-carbamoyl-5-oxo-2,5-dihydrofuran-3-yl)amino)propyl)(8-oxo-8-(undecan-3-yloxy)octyl)amino)octanoate] | 7.36E+05
0.123 | 72.6 | 12.7 | 50.1 | 37.2 | 10.3 | 40.2 | 49.5 | 6.75 | 89.9 | 121247 | 0 | 60.7 | 0.902 | CCCCCCCCC(CC)OC(=O)CCCCCCCN(CCCCCCCC(=O)OC(CCCCCCCC)CCCCCCCC)CCCNS(=O)(=O)C[C@H]1COCCO1 (stereo partly drawn) [Compound 70, Heptadecan-9-yl 8-((3-((((R)-1,4-dioxan-2-yl)methyl)sulfonamido)propyl)(8-oxo-8-(undecan-3-yloxy)octyl)amino)octanoate] | 9.18E+05
0.154 | 77.1 |  |  |  |  |  |  |  | 92.9 | 56008 | 0 | 68.9 |  | CCCCCCCCC(CC)OC(=O)CCCCCCCN(CCCCCCCC(=O)OC(CCCCCCCC)CCCCCCCC)CCCNC1=NC(=O)N(C)C1=O (stereo not shown) [Compound 9, Heptadecan-9-yl 8-((3-((1-methyl-2,5-dioxo-2,5-dihydro-1H-imidazol-4-yl)amino)propyl)(8-oxo-8-(undecan-3-yloxy)octyl)amino)octanoate] | 5.32E+05
0.125 | 70.1 | 27.2 | 32.9 | 39.9 | 13.1 | 32.9 | 54.0 | 6.64 | 91.8 | 112648 | 3.54 | 59.1 | 0.837 | CCCCCCCCC(CC)OC(=O)CCCCCCCN(CCCCCCCC(=O)OC(CCCCCCCC)CCCCCCCC)CCCNS(=O)(=O)CC (stereo not shown) [Compound 66, Heptadecan-9-yl 8-((3-(ethylsulfonamido)propyl)(8-oxo-8-(undecan-3-yloxy)octyl)amino)octanoate] | 1.57E+06
0.131 | 67.6 |  |  |  |  |  |  | 6.94 | 97.5 | 182846 | 0 | 61.4 |  | CCCCCCCCC(CC)OC(=O)CCCCCCCN(CCCCCCCC(=O)OC(CCCCCCCC)CCCCCCCC)CCCNc1n[s+]([O-])nc1NC (stereo not shown) [Compound 1, Heptadecan-9-yl 8-((3-((4-(methylamino)-1-oxido-1,2,5-thiadiazol-3-yl)amino)propyl)(8-oxo-8-(undecan-3-yloxy)octyl)amino)octanoate] | 6.38E+05
0.109 | 64.7 | 20.2 | 35.9 | 43.9 | 8.7 | 30.8 | 60.6 | 6.54 | 90.8 | 147047 | 0 | 50.7 | 0.874 | CCCCCCCCC(CC)OC(=O)CCCCCCCN(CCCCCCCC(=O)OC(CCCCCCCC)CCCCCCCC)CCCNS(=O)(=O)Cc1ccon1 (stereo not shown) [Compound 71, Heptadecan-9-yl 8-((3-((isoxazol-3-ylmethyl)sulfonamido)propyl)(8-oxo-8-(undecan-3-yloxy)octyl)amino)octanoate] | 1.50E+06
0.109 | 63.2 |  |  |  |  |  |  | 6.71 | 96.6 |  | 1.12 |  | 0.822 | CCCCCCCCC(CC)OC(=O)CCCCCCCN(CCCCCCCC(=O)OC(CCCCCCCC)CCCCCCCC)CCCNS(=O)(=O)c1ccn(C)n1 (stereo not shown) [Compound 68, Heptadecan-9-yl 8-((3-((1-methyl-1H-pyrazole)-3-sulfonamido)propyl)(8-oxo-8-(undecan-3-yloxy)octyl)amino)octanoate] | 4.29E+05
